How the values were obtained:
[1] = Cytotoxicity against human SF295 cells after 48 hrs by SRB assay; format: functional; settings: SF-295, 48 h
[2] = Cytotoxicity against human UO31 cells assessed as cell growth at 10^-5 M after 48 hrs by SRB assay; format: functional; settings: UO-31, 48 h, read-out: Activity
[3] = Cytotoxicity against human UACC257 cells assessed as cell growth at 10^-5 M after 48 hrs by SRB assay; format: functional; settings: UACC-257, 48 h, read-out: Activity
[4] = Cytotoxicity against human Caki1 cells assessed as cell growth at 10^-5 M after 48 hrs by SRB assay; format: functional; settings: CAKI-1, 48 h, read-out: Activity
Albumin [5] = target: T1, Albumin (Homo sapiens, UniProt P02768); experiment: Binding affinity to human serum albumin at 0.25 uM at 303 K by fluorescence microscopic analysis in the presence of Cu2+; format: ADME; settings: isolated protein
T1 sequence (P02768 whole entry): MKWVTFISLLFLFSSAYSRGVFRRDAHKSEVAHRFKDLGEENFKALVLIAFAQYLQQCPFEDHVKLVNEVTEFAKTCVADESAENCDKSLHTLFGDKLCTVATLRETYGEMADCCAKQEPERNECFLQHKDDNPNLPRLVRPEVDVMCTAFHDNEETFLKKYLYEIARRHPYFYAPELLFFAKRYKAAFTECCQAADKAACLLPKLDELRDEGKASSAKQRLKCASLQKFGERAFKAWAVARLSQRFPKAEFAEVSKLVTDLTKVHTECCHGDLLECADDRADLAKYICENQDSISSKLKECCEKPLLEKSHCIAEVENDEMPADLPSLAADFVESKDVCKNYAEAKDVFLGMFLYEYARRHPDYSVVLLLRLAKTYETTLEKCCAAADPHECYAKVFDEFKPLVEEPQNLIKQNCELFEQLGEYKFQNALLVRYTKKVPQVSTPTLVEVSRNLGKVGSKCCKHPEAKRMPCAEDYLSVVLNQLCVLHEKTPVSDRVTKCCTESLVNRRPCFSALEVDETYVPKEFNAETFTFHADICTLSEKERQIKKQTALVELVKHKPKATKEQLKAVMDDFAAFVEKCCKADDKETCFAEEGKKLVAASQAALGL

A549 = experiment: Cytotoxicity against human A549 cells after 48 hrs by SRB assay; format: functional; settings: A549, 48 h
SK-MEL-2 = experiment: Cytotoxicity against human SK-MEL-2 cells after 48 hrs by SRB assay; format: functional; settings: SK-MEL-2, 48 h
[6] = Cytotoxicity against human HCC2998 cells after 48 hrs by SRB assay; format: functional; settings: HCC 2998, 48 h
Albumin [7] = target: T1, Albumin; experiment: Binding affinity to human serum albumin assessed Stern-Volmer quenching constant at 0.25 to 2 uM at 288 K by fluorescence microscopic analysis; format: ADME; settings: isolated protein
MCF7 = experiment: Cytotoxicity against human MCF7 cells assessed as cell growth at 10^-5 M after 48 hrs by SRB assay; format: functional; settings: MCF7, 48 h, read-out: Activity
[8] = Cytotoxicity against human PC3 cells assessed as cell growth at 10^-5 M after 48 hrs by SRB assay; format: functional; settings: PC-3, 48 h, read-out: Activity
[9] = Cytotoxicity against human DU145 cells after 48 hrs by SRB assay; format: functional; settings: DU-145, 48 h
[10] = Cytotoxicity against human UACC62 cells assessed as cell growth at 10^-5 M after 48 hrs by SRB assay; format: functional; settings: UACC-62, 48 h, read-out: Activity
[11] = Antiproliferative activity against human OVCAR4 cells at 10'5 M; format: functional, OVCAR-4
[12] = Cytotoxicity against human HL-60(TB) cells after 48 hrs by SRB assay; format: functional; settings: HL-60, 48 h
Albumin [13] = target: T1, Albumin; experiment: Binding affinity to human serum albumin at 0.25 uM at 303 K by fluorescence microscopic analysis in the presence of Ni2+; format: ADME; settings: isolated protein
[14] = Cytotoxicity against human BT549 cells assessed as cell growth at 10^-5 M after 48 hrs by SRB assay; format: functional; settings: BT-549, 48 h, read-out: Activity
Albumin [15] = target: T1, Albumin; experiment: Binding affinity to human serum albumin at 0.25 to 2 uM at 303 K by fluorescence microscopic analysis in the presence of digitoxin; format: ADME; settings: isolated protein
K562 = experiment: Cytotoxicity against human K562 cells after 48 hrs by SRB assay; format: functional; settings: K562, 48 h
[16] = Cytotoxicity against human HL-60(TB) cells assessed as cell growth at 10^-5 M after 48 hrs by SRB assay; format: functional; settings: HL-60, 48 h, read-out: Activity
A498 = experiment: Cytotoxicity against human A498 cells assessed as cell growth at 10^-5 M after 48 hrs by SRB assay; format: functional; settings: A498, 48 h, read-out: Activity
SN12C = experiment: Cytotoxicity against human SN12C cells assessed as cell growth at 10^-5 M after 48 hrs by SRB assay; format: functional; settings: read-out: Activity
[17] = Cytotoxicity against human RPMI8226 cells assessed as cell growth at 10^-5 M after 48 hrs by SRB assay; format: functional; settings: RPMI-8226, 48 h, read-out: Activity
M14 = experiment: Cytotoxicity against human M14 cells after 48 hrs by SRB assay; format: functional; settings: M14, 48 h
[18] = Cytotoxicity against human HOP62 cells after 48 hrs by SRB assay; format: functional; settings: HOP-62, 48 h
[19] = Antiproliferative activity against human HCC2998 cells at 10'5 M; format: functional, HCC 2998
HT-29 = experiment: Cytotoxicity against human HT-29 cells after 48 hrs by SRB assay; format: functional; settings: HT-29, 48 h
[20] = Antiproliferative activity against human MOLT4 cells at 10'5 M; format: functional, MOLT-4
U-251 = experiment: Cytotoxicity against human U251 cells after 48 hrs by SRB assay; format: functional; settings: U-251, 48 h
[21] = Antiproliferative activity against human SKOV3 cells at 10'5 M; format: functional, SK-OV-3
[22] = Cytotoxicity against human DU145 cells assessed as cell growth at 10^-5 M after 48 hrs by SRB assay; format: functional; settings: DU-145, 48 h, read-out: Activity
SK-MEL-28 = experiment: Cytotoxicity against human SK-MEL-28 cells assessed as cell growth at 10^-5 M after 48 hrs by SRB assay; format: functional; settings: SK-MEL-28, 48 h, read-out: Activity
[23] = Cytotoxicity against human HCC2998 cells assessed as cell growth at 10^-5 M after 48 hrs by SRB assay; format: functional; settings: HCC 2998, 48 h, read-out: Activity
[24] = Cytotoxicity against human SNB19 cells assessed as cell growth at 10^-5 M after 48 hrs by SRB assay; format: functional; settings: SNB-19, 48 h, read-out: Activity
[25] = Cytotoxicity against human SNB19 cells after 48 hrs by SRB assay; format: functional; settings: SNB-19, 48 h
[26] = Cytotoxicity against human SKOV3 cells assessed as cell growth at 10^-5 M after 48 hrs by SRB assay; format: functional; settings: SK-OV-3, 48 h, read-out: Activity
Albumin [27] = target: T1, Albumin; experiment: Binding affinity to human serum albumin assessed Stern-Volmer quenching constant at 0.25 to 2 uM at 308 K by fluorescence microscopic analysis; format: ADME; settings: isolated protein
Malme-3M = experiment: Antiproliferative activity against human MALME-3M cells at 10'5 M; format: functional
[28] = Cytotoxicity against human OVCAR5 cells assessed as cell growth at 10^-5 M after 48 hrs by SRB assay; format: functional; settings: OVCAR-5, 48 h, read-out: Activity
MDA-MB-435 = experiment: Cytotoxicity against human MDA-MB-435 cells assessed as cell growth at 10^-5 M after 48 hrs by SRB assay; format: functional; settings: MDA-MB-435, 48 h, read-out: Activity
[29] = read-out: LC50 (the source's name)

O=C(/C=C/c1ccccc1)n1c(-c2ccc(Cl)cc2)nc2ccccc21
GI50 [1]: 2.1 µM | TGI [1]: 6.14 µM | CC50 [1, 29]: 42.5 µM | growth at 10 µM [2]: -39% | growth at 10 µM [3]: -64.4% | growth at 10 µM [4]: -39.5% | K (Albumin [5]): 2.44 ×10³ /mol | GI50 (A549): 0.38 µM | TGI (A549): 1.88 µM | CC50 (A549; [29]): > 100 µM | GI50 (SK-MEL-2): 1.11 µM | TGI (SK-MEL-2): 3.04 µM | CC50 (SK-MEL-2; [29]): 8.32 µM | GI50 [6]: 1.41 µM | TGI [6]: 2.78 µM | CC50 [6, 29]: 5.49 µM | KSV (Albumin [7]): 2.03 ×10⁵ L/mol | growth at 10 µM (MCF7): 10.3% | growth at 10 µM [8]: 6.09% | GI50 [9]: 1.8 µM | TGI [9]: 4.93 µM | CC50 [9, 29]: 17 µM | growth at 10 µM [10]: -84.7% | growth inhibition (GI) [11]: 69.96% | GI50 [12]: 1.4 µM | TGI [12]: 4.88 µM | CC50 [12, 29]: > 100 µM | K (Albumin [13]): 5.35 ×10³ /mol | growth at 10 µM [14]: -50.5% | K (Albumin [15]): 5.73 ×10³ /M | GI50 (K562): 2.09 µM | TGI (K562): 11.8 µM | CC50 (K562; [29]): > 100 µM | growth at 10 µM [16]: -3.97% | growth at 10 µM (A498): -14.6% | growth at 10 µM (SN12C): -48.5% | growth at 10 µM [17]: -31.1% | GI50 (M14): 1.63 µM | TGI (M14): 5.74 µM | CC50 (M14; [29]): 26 µM | GI50 [18]: 1.89 µM | TGI [18]: 7.3 µM | CC50 [18, 29]: 35.1 µM | growth inhibition (GI) [19]: 94.92% | GI50 (HT-29): 1.34 µM | TGI (HT-29): 7.05 µM | CC50 (HT-29; [29]): 29.8 µM | growth inhibition (GI) [20]: 78.07% | GI50 (U-251): 1.44 µM | TGI (U-251): 3.77 µM | CC50 (U-251; [29]): 9.91 µM | growth inhibition (GI) [21]: 76.05% | growth at 10 µM [22]: 11.1% | growth at 10 µM (SK-MEL-28): -65.4% | growth at 10 µM [23]: 5.08% | growth at 10 µM [24]: 41.1% | GI50 [25]: 1.47 µM | TGI [25]: 2.92 µM | CC50 [25, 29]: 5.79 µM | growth at 10 µM [26]: 23.9% | KSV (Albumin [27]): 1.14 ×10⁵ L/mol | growth inhibition (GI) (Malme-3M): 84.12% | growth at 10 µM [28]: -48.1% | growth at 10 µM (MDA-MB-435): -44.3%

From ChEMBL document CHEMBL3769371, “1-[(2E)-3-Phenylprop-2-enoyl]-1H-benzimidazoles as anticancer agents: synthesis, crystal structure analysis and binding studies of the most potent anticancer molecule with serum albumin” (Medchemcomm, 2015)
